One assay deals with DNA-PK(h) (Homo sapiens, UniProt P78527). The assay can be described thus: Evaluation of inhibitory activity against DNA-PK (HTRF kinase assay, GST-cMyc-p53 substrate). The format is biochemical. Particulars: for inhibition at 0.01 µM: compound concentration 0.01 μM, read-out: EXP_VALUE(% Inhibition) DNA-PK(h) 0.01 μM; for inhibition at 0.1 µM: compound concentration 0.1 μM, read-out: EXP_VALUE(% Inhibition) DNA-PK(h) 0.1 μM. In a few lines:
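Human DNA-PK with 50 μM GST-cMyc-p53 substrate; reaction started with Mg/ATP, run 30 min at room temperature, stopped with EDTA. Phospho-Ser15 p53 detected by HTRF (Eu anti-phospho-Ser15, d2 anti-GST), signal = 10000×(Em 665/Em 620).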

In assay [1] the target is PI3K-δ (PI3K(p1108/p857) (h)) (Homo sapiens, UniProt O00329). Nature of the assay: Evaluation of inhibitory activity against PI3K-δ (HTRF kinase assay). The format is biochemical. Particulars: for inhibition at 0.01 µM: compound concentration 0.01 μM, read-out: EXP_VALUE(% Inhibition) PI3K-δ 0.01 μM; for inhibition at 0.1 µM: compound concentration 0.1 μM, read-out: EXP_VALUE(% Inhibition) PI3K-δ 0.1 μM. In a few lines: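 HTRF read-out (665/620 nm ratio ×10000) used Eu-labelled anti-GST, GST-tagged GRP1 PH domain and streptavidin-allophycocyanin after EDTA/PIP3 stop.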
In general terms: TR-FRET usually uses a lanthanide donor and a delayed reading to cut background.

From US20230072683A1, “PYRIDO-PYRIMIDIN DERIVATIVES AND PHARMACEUTICAL COMPOSITION, FOR USE IN PREVENTING OR TREATING PI3 KINASE RELATED DISEASES, COMPRISING SAME AS ACTIVE INGREDIENT” (BORYUNG PHARMACEUTICAL CO., LTD, priority 2019, published 2023) come the findings set out here.

The structures appear in SMILES notation.

PI3K-δ (PI3K(p1108/p857) (h)), sequence (O00329 whole entry, the tested form may be a part): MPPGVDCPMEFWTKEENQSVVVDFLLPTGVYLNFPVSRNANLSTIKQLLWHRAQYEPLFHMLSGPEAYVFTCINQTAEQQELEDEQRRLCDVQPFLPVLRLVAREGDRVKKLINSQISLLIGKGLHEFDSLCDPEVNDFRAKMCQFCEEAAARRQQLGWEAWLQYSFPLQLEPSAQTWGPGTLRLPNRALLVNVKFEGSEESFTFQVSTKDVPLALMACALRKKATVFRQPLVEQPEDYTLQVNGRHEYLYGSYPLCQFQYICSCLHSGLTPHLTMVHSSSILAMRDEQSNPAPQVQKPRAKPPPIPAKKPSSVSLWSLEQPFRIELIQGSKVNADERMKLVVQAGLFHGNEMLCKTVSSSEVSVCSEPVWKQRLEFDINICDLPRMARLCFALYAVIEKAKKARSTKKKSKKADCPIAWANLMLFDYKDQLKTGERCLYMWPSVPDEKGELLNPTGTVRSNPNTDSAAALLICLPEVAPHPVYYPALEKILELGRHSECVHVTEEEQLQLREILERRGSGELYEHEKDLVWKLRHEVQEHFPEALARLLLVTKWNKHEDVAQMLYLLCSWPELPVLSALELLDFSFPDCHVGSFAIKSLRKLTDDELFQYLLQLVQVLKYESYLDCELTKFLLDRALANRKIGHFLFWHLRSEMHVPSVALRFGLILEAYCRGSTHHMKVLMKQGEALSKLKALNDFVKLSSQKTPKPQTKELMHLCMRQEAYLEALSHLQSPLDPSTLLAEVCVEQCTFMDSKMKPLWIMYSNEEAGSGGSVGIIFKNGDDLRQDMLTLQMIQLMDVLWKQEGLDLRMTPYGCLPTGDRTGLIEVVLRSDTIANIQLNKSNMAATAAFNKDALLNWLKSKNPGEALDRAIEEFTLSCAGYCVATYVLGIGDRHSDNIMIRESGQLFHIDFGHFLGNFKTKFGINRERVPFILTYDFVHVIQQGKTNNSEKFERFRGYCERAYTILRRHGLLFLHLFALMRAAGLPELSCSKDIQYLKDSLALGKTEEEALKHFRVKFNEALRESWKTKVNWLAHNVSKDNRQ
PI3K-δ (PI3K(p1108/p857) (h)), sequence (P27986 whole entry partner, the tested form may be a part): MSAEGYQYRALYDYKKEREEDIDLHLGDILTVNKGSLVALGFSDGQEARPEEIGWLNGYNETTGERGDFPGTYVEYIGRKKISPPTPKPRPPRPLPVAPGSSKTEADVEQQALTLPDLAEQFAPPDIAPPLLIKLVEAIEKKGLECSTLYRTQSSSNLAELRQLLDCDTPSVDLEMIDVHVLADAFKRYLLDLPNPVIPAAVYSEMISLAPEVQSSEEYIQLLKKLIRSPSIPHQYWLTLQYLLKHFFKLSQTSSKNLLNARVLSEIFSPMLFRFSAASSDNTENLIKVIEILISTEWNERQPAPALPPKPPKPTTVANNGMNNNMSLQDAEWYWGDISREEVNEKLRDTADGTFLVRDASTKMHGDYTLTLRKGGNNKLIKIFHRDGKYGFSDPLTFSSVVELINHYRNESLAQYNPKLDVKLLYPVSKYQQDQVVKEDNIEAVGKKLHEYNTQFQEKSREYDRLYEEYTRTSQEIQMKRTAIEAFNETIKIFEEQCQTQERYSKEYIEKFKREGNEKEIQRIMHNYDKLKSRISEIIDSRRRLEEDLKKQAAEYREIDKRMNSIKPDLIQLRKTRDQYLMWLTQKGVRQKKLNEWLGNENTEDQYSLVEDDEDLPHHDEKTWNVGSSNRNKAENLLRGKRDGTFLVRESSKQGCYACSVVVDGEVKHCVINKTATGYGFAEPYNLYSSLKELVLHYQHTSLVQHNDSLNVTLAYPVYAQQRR

Broadly, the inhibition is the relative decrease from the control value, in per cent. For the compound `Cc1cc(C#N)ccc1-c1cccc2c(Cl)c([C@H](C)Nc3ncnc4[nH]ccc(=O)c34)n(-c3ccccc3)c(=O)c12` [Example 67, (S)-4-(4-chloro-1-oxo-3-(1-((5-oxo-5,8-dihydropyrido[2,3-d]pyrimidin-4-yl)amino)ethyl)-2-phenyl-1,2-dihydroisoquinolin-8-yl)-3-methylbenzonitrile], on DNA-PK(h), the inhibition at 0.01 µM turned out to be 56% and the inhibition at 0.1 µM is 86%. Moreover, in assay [1], the inhibition at 0.01 µM is 82% and the inhibition at 0.1 µM was found to be 92%.
As to `C[C@H](Nc1ncnc2[nH]ccc(=O)c12)c1c(Cl)c2cccc(-c3cnc(Cl)c4ccccc34)c2c(=O)n1-c1ccccc1` [Example 69, (S)-1,4′-dichloro-3′-(1-((5-oxo-5,8-dihydropyrido[2,3-d]pyrimidin-4-yl)amino)ethyl)-2′-phenyl-(4,8′-biisoquinolin)-1′(2′H)-one], at DNA-PK(h), the inhibition at 0.01 µM amounted to 3% and the inhibition at 0.1 µM was 2.7%. Besides, in assay [1], the inhibition at 0.01 µM is 3.3% and the inhibition at 0.1 µM came out at 14.5%.
`C[C@H](Nc1ncnc2[nH]ccc(=O)c12)c1c(Cl)c2cccc(/C=C/c3ccccc3)c2c(=O)n1-c1ccccc1` [Example 70, (S,E)-4-((1-(4-chloro-1-oxo-2-phenyl-8-styryl-1,2-dihydroisoquinolin-3-yl)ethyl)amino)pyrido[2,3-d]pyrimidin-5(8H)-one]: the results for the inhibition at 0.01 µM (on DNA-PK(h); in assay [1]) were -1.2% and 10.2%, respectively. Also, the inhibition at 0.1 µM at DNA-PK(h) is 23.6%; in assay [1], 29.9%.
As to `C[C@H](Nc1ncnc2[nH]ccc(=O)c12)c1c(Cl)c2cccc(-c3ccc(Cl)c(Cl)c3)c2c(=O)n1-c1ccccc1` [Example 71, (S)-4-((1-(4-chloro-8-(3,4-dichlorophenyl)-1-oxo-2-phenyl-1,2-dihydroisoquinolin-3-yl)ethyl)amino)pyrido[2,3-d]pyrimidin-5(8H)-one], on DNA-PK(h), the inhibition at 0.01 µM stood at 16% and the inhibition at 0.1 µM came out at 41%. For the same compound, in assay [1], the inhibition at 0.01 µM is 17% and the inhibition at 0.1 µM came to 44%.
On the same counts, the results for `C[C@H](Nc1ncnc2[nH]ccc(=O)c12)c1c(Cl)c2cccc(-c3ccc(N(C)C)cc3)c2c(=O)n1-c1ccccc1` [Example 72, (S)-4-((1-(4-chloro-8-(4-(dimethylamino)phenyl)-1-oxo-2-phenyl-1,2-dihydroisoquinolin-3-yl)ethyl)amino)pyrido[2,3-d]pyrimidin-5(8H)-one] are 58%, 96%, 99% and 112%.
Turning to `C[C@H](Nc1ncnc2[nH]ccc(=O)c12)c1c(Cl)c2cccc(-c3ccc4[nH]ccc4c3)c2c(=O)n1-c1ccccc1` [Example 73, (S)-4-((1-(4-chloro-8-(1H-indol-5-yl)-1-oxo-2-phenyl-1,2-dihydroisoquinolin-3-yl)ethyl)amino)pyrido[2,3-d]pyrimidin-5(8H)-one], on DNA-PK(h), the inhibition at 0.01 µM is 53% and the inhibition at 0.1 µM worked out at 92%. In addition, in assay [1], the inhibition at 0.01 µM was 72% and the inhibition at 0.1 µM was found to be 86%.
Consider `Cc1c[nH]c2ccc(-c3cccc4c(Cl)c([C@H](C)Nc5ncnc6[nH]ccc(=O)c56)n(-c5ccccc5)c(=O)c34)cc12` [Example 74, (S)-4-((1-(4-chloro-8-(3-methyl-1H-indol-5-yl)-1-oxo-2-phenyl-1,2-dihydroisoquinolin-3-yl)ethyl)amino)pyrido[2,3-d]pyrimidin-5(8H)-one], for which the inhibition at 0.01 µM on DNA-PK(h) turned out to be 54%; in assay [1] it was 65%. Further, the inhibition at 0.1 µM stood at 90% on DNA-PK(h) and 88% in assay [1].
As to `C[C@H](Nc1ncnc2[nH]ccc(=O)c12)c1c(Cl)c2cccc(-c3ccc(N4CCOCC4)cc3)c2c(=O)n1-c1ccccc1` [Example 75, (S)-4-((1-(4-chloro-8-(4-morpholinophenyl)-1-oxo-2-phenyl-1,2-dihydroisoquinolin-3-yl)ethyl)amino)pyrido[2,3-d]pyrimidin-5(8H)-one], the inhibition at 0.01 µM at DNA-PK(h) was 82%; in assay [1] it was 79%. Also, the inhibition at 0.1 µM on DNA-PK(h) worked out at 99%; in assay [1], 86%.
Take `CC(C)C1CCN(c2cccc3c(Cl)c([C@H](C)Nc4ncnc5[nH]ccc(=O)c45)n(-c4ccccc4)c(=O)c23)CC1` [Example 76, (S)-4-((1-(4-chloro-8-(4-isopropylpiperidin-1-yl)-1-oxo-2-phenyl-1,2-dihydroisoquinolin-3-yl)ethyl)amino)pyrido[2,3-d]pyrimidin-5(8H)-one]: the inhibition at 0.01 µM at DNA-PK(h) came to 1%; in assay [1], 14%. Moreover, the inhibition at 0.1 µM at DNA-PK(h) came to 20%; in assay [1] it was 43%.
Consider `C[C@H](Nc1ncnc2[nH]ccc(=O)c12)c1c(Cl)c2cccc(N3CCC(NC(=O)OC(C)(C)C)CC3)c2c(=O)n1-c1ccccc1` [Example 77, tert-butyl(S)-(1-(4-chloro-1-oxo-3-(1-((5-oxo-5,8-dihydropyrido[2,3-d]pyrimidin-4-yl)amino)ethyl)-2-phenyl-1,2-dihydroisoquinolin-8-yl)piperidin-4-yl) carbamate], for which, at DNA-PK(h), the inhibition at 0.01 µM turned out to be 9% and the inhibition at 0.1 µM is 64%. Further, in assay [1], the inhibition at 0.01 µM was found to be 45% and the inhibition at 0.1 µM was determined as 78%.
For the compound `C[C@H](Nc1ncnc2[nH]ccc(=O)c12)c1c(Cl)c2cccc(N3CCN(c4ccccc4O)CC3)c2c(=O)n1-c1ccccc1` [Example 78, (S)-4-((1-(4-chloro-8-(4-(2-hydroxyphenyl)piperazin-1-yl)-1-oxo-2-phenyl-1,2-dihydroisoquinolin-3-yl)ethyl)amino)pyrido[2,3-d]pyrimidin-5(8H)-one], at DNA-PK(h), the inhibition at 0.01 µM was found to be 18% and the inhibition at 0.1 µM stood at 56%. Besides, in assay [1], the inhibition at 0.01 µM was 46% and the inhibition at 0.1 µM was determined as 78%.
For `C[C@H](Nc1ncnc2[nH]ccc(=O)c12)c1c(Cl)c2cccc(-c3cccc(C=O)c3)c2c(=O)n1-c1ccccc1` [Example 79, (S)-3-(4-chloro-1-oxo-3-(1-((5-oxo-5,8-dihydropyrido[2,3-d]pyrimidin-4-yl)amino)ethyl)-2-phenyl-1,2-dihydroisoquinolin-8-yl)benzaldehyde] the same measures were 82%, 98%, 114% and 111%.
On the same counts, the results for `C[C@H](Nc1ncnc2[nH]ccc(=O)c12)c1c(Cl)c2cccc(-c3ccc(C(N)=O)cc3)c2c(=O)n1-c1ccccc1` [Example 80, (S)-4-(4-chloro-1-oxo-3-(1-((5-oxo-5,8-dihydropyrido[2,3-d]pyrimidin-4-yl)amino)ethyl)-2-phenyl-1,2-dihydroisoquinolin-8-yl)benzamide] are 90%, 106%, 110% and 101%.
As for `C[C@H](Nc1ncnc2[nH]ccc(=O)c12)c1cc2cccc(-c3ccc(C(N)=O)cc3)c2c(=O)n1-c1ccccc1` [Example 81, (S)-4-(1-oxo-3-(1-((5-oxo-5,8-dihydropyrido[2,3-d]pyrimidin-4-yl)amino)ethyl)-2-phenyl-1,2-dihydroisoquinolin-8-yl)benzamide], on DNA-PK(h), the inhibition at 0.01 µM is 22% and the inhibition at 0.1 µM worked out at 76%. In assay [1], the inhibition at 0.01 µM was 97% and the inhibition at 0.1 µM was 105%.
In the case of `Cc1c(-c2cccc3c(Cl)c([C@H](C)Nc4ncnc5[nH]ccc(=O)c45)n(-c4ccccc4)c(=O)c23)cnn1C` [Example 82, (S)-4-((1-(4-chloro-8-(1,5-dimethyl-1H-pyrazol-4-yl)-1-oxo-2-phenyl-1,2-dihydroisoquinolin-3-yl)ethyl)amino)pyrido[2,3-d]pyrimidin-5(8H)-one], the inhibition at 0.01 µM was determined as 74% at DNA-PK(h) and 73% in assay [1]. The inhibition at 0.1 µM (at DNA-PK(h); in assay [1]) was 94% throughout.
Take `C[C@H](Nc1ncnc2[nH]ccc(=O)c12)c1c(Cl)c2cccc(-c3cnn(CCN(C)C)c3)c2c(=O)n1-c1ccccc1` [Example 83, (S)-4-((1-(4-chloro-8-(1-(2-(dimethylamino)ethyl)-1H-pyrazol-4-yl)-1-oxo-2-phenyl-1,2-dihydroisoquinolin-3-yl)ethyl)amino)pyrido[2,3-d]pyrimidin-5(8H)-one]: the inhibition at 0.01 µM came out at 66% at DNA-PK(h) and 56% in assay [1]. The inhibition at 0.1 µM at DNA-PK(h) was 94%; in assay [1], 89%.
Take `C[C@H](Nc1ncnc2[nH]ccc(=O)c12)c1c(Cl)c2cccc(-c3ccc(Cl)cc3)c2c(=O)n1-c1ccccc1` [Example 84, (S)-4-((1-(4-chloro-8-(4-chlorophenyl)-1-oxo-2-phenyl-1,2-dihydroisoquinolin-3-yl)ethyl)amino)pyrido[2,3-d]pyrimidin-5(8H)-one]: at DNA-PK(h), the inhibition at 0.01 µM was determined as 16% and the inhibition at 0.1 µM is 65%. In assay [1], the inhibition at 0.01 µM was 49% and the inhibition at 0.1 µM is 91%.
Turning to `C[C@H](Nc1ncnc2[nH]ccc(=O)c12)c1c(Cl)c2cccc(-c3ccc(C=O)cc3)c2c(=O)n1-c1ccccc1` [Example 85, (S)-4-(4-chloro-1-oxo-3-(1-((5-oxo-5,8-dihydropyrido[2,3-d]pyrimidin-4-yl)amino)ethyl)-2-phenyl-1,2-dihydroisoquinolin-8-yl)benzaldehyde], on DNA-PK(h), the inhibition at 0.01 µM is 56% and the inhibition at 0.1 µM amounted to 91%. Also, in assay [1], the inhibition at 0.01 µM came to 73% and the inhibition at 0.1 µM stood at 95%.
